Tests used:
Conditions in all cases: 48 h
NOMO1 [1] = assay: cell viability relative to DMSO control; higher = less cytotoxic
Procedure, shortened: (§1)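 In 1536-well plates, 5 μl of leukemia cells were seeded per well: 500 cells/well for NOMO1 or SEM and 1000 cells/well for P12-Ichikawa. Each line had first been adapted for at least four passages in each medium. Library compounds in DMSO were pin-dosed at 11 threefold concentrations between 47 μM and 0.79 nM, and CellTiter-Glo One luminescence was read after 48 h at 37°C. Viability is a per-plate percentage relative to DMSO wells, with cell-free wells as background.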

P12-Ichikawa [2] = assay: as above
Procedure, shortened: as §1

SEM cells [3] = assay: as above
Procedure, shortened: as §1

NOMO1 [4] = assay: AUC of viability dose-response curve (% viability x log10 dose units); higher = less sensitive
Procedure, shortened: (§2)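 Leukemia cells adapted to each medium were seeded in 1536-well plates (500 or 1000 cells/well). They were dosed with library compounds in DMSO at 11 threefold doses, 47 μM to 0.79 nM, for 48 h at 37°C. CellTiter-Glo One luminescence was normalised per plate to DMSO and cell-free wells. Area under the curve was integrated by trapezoidal rule over log10 doses on a four-parameter log-logistic fit; curves exceeding full viability were scaled and curves failing quality control removed.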

P12-Ichikawa [5] = assay: as above
Procedure, shortened: as §2

SEM cells [6] = assay: as above
Procedure, shortened: as §2

CC[C@]12CC[C@H]3[C@@H](CCC/4=C/C(=O)CC[C@H]34)[C@@H]1\C=C/[C@@]2(O)C#C
cell viability [%]
Conditions	NOMO1 [1]	P12-Ichikawa [2]	SEM cells [3]
HPLM + 10% dialyzed FBS, 0.000781 µM	118	109	78.9
HPLM + 10% dialyzed FBS, 0.00234 µM	116	124	96.1
HPLM + 10% dialyzed FBS, 0.00702 µM	132	124	106
HPLM + 10% dialyzed FBS, 0.0211 µM	133	125	102
HPLM + 10% dialyzed FBS, 0.0632 µM	128	132	111
HPLM + 10% dialyzed FBS, 0.19 µM	113	129	108
HPLM + 10% dialyzed FBS, 0.569 µM	137	128	115
HPLM + 10% dialyzed FBS, 1.71 µM	146	120	109
HPLM + 10% dialyzed FBS, 5.12 µM	133	122	127
HPLM + 10% dialyzed FBS, 15.4 µM	138	123	110
HPLM + 10% dialyzed FBS, 46.1 µM	124	119	121
RPMI 5 mM glucose + 10% FBS, 0.000781 µM	110	–	110
RPMI 5 mM glucose + 10% FBS, 0.00234 µM	120	–	107
RPMI 5 mM glucose + 10% FBS, 0.00702 µM	120	–	119
RPMI 5 mM glucose + 10% FBS, 0.0211 µM	123	–	123
RPMI 5 mM glucose + 10% FBS, 0.0632 µM	122	–	131
RPMI 5 mM glucose + 10% FBS, 0.19 µM	138	–	117
RPMI 5 mM glucose + 10% FBS, 0.569 µM	133	–	106
RPMI 5 mM glucose + 10% FBS, 1.71 µM	121	–	124
RPMI 5 mM glucose + 10% FBS, 5.12 µM	112	–	116
RPMI 5 mM glucose + 10% FBS, 15.4 µM	130	–	125
RPMI 5 mM glucose + 10% FBS, 46.1 µM	139	–	116
RPMI 5 mM glucose + 10% dialyzed FBS, 0.000781 µM	116	106	113
RPMI 5 mM glucose + 10% dialyzed FBS, 0.00234 µM	133	110	110
RPMI 5 mM glucose + 10% dialyzed FBS, 0.00702 µM	122	121	108
RPMI 5 mM glucose + 10% dialyzed FBS, 0.0211 µM	124	115	115
RPMI 5 mM glucose + 10% dialyzed FBS, 0.0632 µM	126	119	116
RPMI 5 mM glucose + 10% dialyzed FBS, 0.19 µM	111	114	120
RPMI 5 mM glucose + 10% dialyzed FBS, 0.569 µM	137	124	109
RPMI 5 mM glucose + 10% dialyzed FBS, 1.71 µM	133	123	118
RPMI 5 mM glucose + 10% dialyzed FBS, 5.12 µM	138	118	115
RPMI 5 mM glucose + 10% dialyzed FBS, 15.4 µM	140	113	118
RPMI 5 mM glucose + 10% dialyzed FBS, 46.1 µM	132	116	118

AUC of viability dose-response curve
Conditions	NOMO1 [4]	P12-Ichikawa [5]	SEM cells [6]
HPLM + 10% dialyzed FBS	461	473	446
RPMI 5 mM glucose + 10% FBS	451	473	465
RPMI 5 mM glucose + 10% dialyzed FBS	450	470	464

— the supplement of paper PMC11451515
